Results: patent US4033721A, “Analysis of gentian violet residue in tissue” (priority 1976, dated 1977)
Values joined by “and” are separate entries in the source; they are usually repeats but may differ in a detail not shown here. Identical values can stand only once. Like-named read-outs stand apart in the source and are kept apart here.

How the values were obtained:
[1] = cited from earlier work
[2] = cited from earlier work; remark: listed apart in the source
[3] = water, chloroform and ethanol; cited from earlier work
Candida albicans = details: cited from earlier work
normal coliform bacteria = details: intestinal tract; cited from earlier work
[4] = cited from earlier work; remark: listed apart in the source
[5] = Spectrophotometric determination of gentian violet residue in livers of chickens fed gentian violet (Examples 2 to 24); type: in vivo
Protocol: This example involves the spectrophotometrical determination of the gentian violet content (as a residue) of poultry tissue.
An acid alcohol solution was prepared by adding 20 ml of concentrated hydrochloric acid to 2,000 ml of 95 percent ethyl alcohol (denatured).
A gentian violet stock solution was prepared as follows: Using the Ainsworth chainomatic analytical balance, 0.104 gm of crystalline gentian violet (USP) was accurately weighed out and quantitatively transferred to a 1000 ml volumetric flask and q.s. to 1000 ml with distilled water. A magnetic stirring bar was inserted into the flask and the gentian violet solution was mixed on a magnetic mixer for 1 hour. This solution contained 100 ug of gentian violet per ml (100 ppm).
Gentian violet-acid alcohol standard solutions were prepared as follows: Five standard dilutions of gentian violet in acid alcohol were prepared and the absorbence (O.D.) for each dilution was determined. The absorbence of the 5 dilutions were plotted on a graph to determine the linearity of the gentian violet curve.
The spectrophotometer was set at 590 mμ and zeroed using an acid alcohol blank. The absorbence of the 5 standard dilutions in the 13 mm cuvette was determined. The O.D. of the 1 ppm dilution in the 13 mm cuvette was recorded for use in calculation of the gentian violet recovery. (If method sensitivity below 0.1 ppm is desired, the O.D. of the 1 ppm standard in the 100 mm cell is recorded and the Beckman D.U. is used to make the determinations.)
A sodium hypochlorite quenching solution was prepared as follows: 0.26 gm. of sodium hypochlorite was weighed into a 250 ml Erlenmeyer flask and q.s. to 100 ml with distilled water. This solution was 0.26 percent NaOCL. If sodium hypochlorite is not available in the laboratory, this solution can be made from any standard household bleaching solution containing sodium hypochlorite (i.e., Clorox) at the 5.25 percent concentration. 1 ml 5.25 percent NaOCL q.s. to 20 ml with distilled water to give 20 ml of 0.26 percent NaOCL.
The tissue samples were prepared by grinding the tissues in a Waring-type blender to reduce the tissues to the smallest particle size possible. Using a Mettler P162-type balance, 5 gm samples of the finely ground tissues were weighed (in triplicate) into Erlenmeyer flasks.
Gentian violet was extracted from tissue samples as follows: 50 ml of acid-alcohol were added (using a graduated glass cylinder) to each of the samples in the flasks. A 3/4" magnetic stirring bar was inserted into each sample. The flasks were stoppered. The samples were placed on the magnetic mixers and mixed for 1 hour. After mixing, the samples were set in the dark to digest for 12 hours (overnight). After 12 hours of digestion the samples were again placed on the magnetic mixer and mixed for 1 hour. The contents of the sample flasks were poured into 60 ml glass centrifuge tubes and centrifuged at 2400 rpm for 10 minutes.
Chromatographic column clearing of the centrifuged samples was achieved as follows: Each column was equipped with a glass stop-cock, if the column was not so equipped. A small glass-wool pledget was inserted firmly in the bottom of the column to fill the bottom curve of the column. 5 to 6 grams of the Alumin AR sorbent was added to each column. The supernatant liquid was carefully decanted from the centrifuge tube into the chromatographic column. A 50 ml beaker was placed under each column. The stop-cock was opened and the first eluant from the column was collected until a minimum of 20 ml was collected. (This first eluant ordinarily was yellow in color but contained the extracted gentian violet.)
Spectrophotometric determination of the gentian violet concentration from the tissue sample was determined as follows: 5 ml of each of the eluants was pipetted into the 13 mm cuvettes. The spectrophotometer was set at 590 mu. The spectrophotometer was zeroed using an acid alcohol blank in the 13 mm cuvette. It was established that all cuvettes were matched. […]

[6] = cited from earlier work; remark: listed apart in the source
[7] = Stability of gentian violet (light, acid, digestive tract pH); type: physicochemical
[8] = Residual 14C-gentian violet in tissues of cockerels after repeated oral administration (Example 26)
[9] = 4 hours after last administration

CN(C)c1ccc(C(=C2C=CC(=[N+](C)C)C=C2)c2ccc(N(C)C)cc2)cc1 [gentian violet, hexamethylpararosaniline chloride]
absorption ([1]; digestive tract of animals and poultry): essentially non-absorbable | residue in tissue of animals fed the compositions ([1]; in vivo): little or no residue | growth on mycotoxin-contaminated feed ([2]; feed containing gentian violet at the claimed levels): increased at a rate significantly faster | growth promotion ([2]; feed contaminated with aflatoxin): works as a growth promoter | sparing effect versus aflatoxin concentration ([2]; in vivo): appears to be a linear function of the concentration of the aflatoxin in the feed | solubility [3]: soluble in water, chloroform and ethanol | effect on Candida albicans (Candida albicans): inhibits the growth of and destroys Candida albicans | effect on growth and activity of normal coliform bacteria (normal coliform bacteria): without materially reducing the growth of and activity of the normal coliform bacteria | toxic effects in poultry ([4]; in vivo): can kill the poultry or cause a decrease in the weight gain of the poultry | toxicity of residue levels to the consuming animal or poultry ([4]; levels given in U.S. Pat. No. 3,916,027): not toxic or harmful | gentian violet residue with time after last intake of feed ([5]; chicken liver): lower with time | p.p.m. of Gentian Violet in liver ([5]; chicken liver, feed 7 ppm for 56 days, 4 hours after final dose, 240 min): 0.28 p.p.m. | p.p.m. of Gentian Violet in liver ([5]; chicken liver, feed 7 ppm for 56 days, 24 hours after final dose, 1440 min): 0.20 p.p.m. | p.p.m. of Gentian Violet in liver ([5]; chicken liver, feed 7 ppm for 56 days, 48 hours after final dose, 2880 min): 0.08 p.p.m. and 0.16 p.p.m. | p.p.m. of Gentian Violet in liver ([5]; chicken liver, feed 35 ppm for 56 days, 12 hours after final dose): 0.44 p.p.m. | p.p.m. of Gentian Violet in liver ([5]; chicken liver, feed 35 ppm for 56 days, 24 hours after final dose, 1440 min): 0.80 p.p.m. and 0.60 p.p.m. | concentration at 4 h ([5]; chicken, liver, po, feed 7 ppm for 56 days, 4 hours after final dose, read-out: p.p.m. of Gentian Violet in liver): 240 ng/g | concentration at 12 h ([5]; chicken, liver, po, feed 7 ppm for 56 days, 12 hours after final dose, read-out: p.p.m. of Gentian Violet in liver): 120 ng/g | concentration at 48 h ([5]; chicken, liver, po, feed 7 ppm for 56 days, 48 hours after final dose, read-out: p.p.m. of Gentian Violet in liver): 80 ng/g | concentration at 12 h ([5]; chicken, liver, po, feed 35 ppm for 56 days, 12 hours after final dose, read-out: p.p.m. of Gentian Violet in liver): 440 ng/g | concentration at 24 h ([5]; chicken, liver, po, feed 35 ppm for 56 days, 24 hours after final dose, read-out: p.p.m. of Gentian Violet in liver): 640 ng/g | concentration at 48 h ([5]; chicken, liver, po, feed 35 ppm for 56 days, 48 hours after final dose, read-out: p.p.m. of Gentian Violet in liver): 360 ng/g | biodegradability ([6]; contaminant in water and residue in poultry manure, ultra-violet rays of sunlight): biodegradable | stability in the digestive tract pH range ([6]; pH range of the digestive tract of animals and poultry): stable | acid stability ([7]; acid ethanol extract, pH lowered by evaporation): the acid would destroy the extracted gentian violet | light stability ([7]; ultra violet rays of sunlight): extremely sensitive to decomposition | radioactivity in 5X kidneys relative to 1X kidneys [8, 9]: 4.7 times | radioactivity in 5X livers relative to 1X livers [8, 9]: 2.7 times | concentration by the liver relative to the kidneys ([8]; in vivo): about twice as much | disappearance from one organ versus the other ([8]; livers and kidneys): does not disappear more rapidly from one organ than the other | mean half-life in the two organs at dose levels ([8]; livers and kidneys, 5X and 1X): 32.2 h
